In brackets after ≈: the same amount, converted by molar mass.
Experiments:
corneal collagen [1] = experiment: Biaxial extensometry (tensiometry) of corneal flaps; parameters: species or system Pig; settings: for displacement-force (corneal stiffness): 1% solution in dH2O; for displacement vs. force (corneal stiffening): 30 mW/cm^2, pulsed 1 s on/1 s off, 8 min, oxygen, vs unexposed controls
Protocol: Pig eyes were shipped overnight on ice from an abattoir (SiouxPreme, Sioux City, Iowa), rinsed in saline. Eyes were cleaned and epithelium was removed. […] If specified, eyes were placed in a beaker with a light oxygen stream for 2 minutes in the incubation chamber prior to irradiation. Corneas were pan-corneally irradiated with a top hat beam (3% root mean square) for the chosen time (4 or 8 minutes) with 365-nm light source (UV LED NCSU033B[T]; Nichia Co., Tokushima, Japan) at the chosen irradiance (30 mW/cm^2, pulsed or non-pulsed) which was measured with a power sensor (model PD-300-UV; Ophir, Inc., Jerusalem, Israel) at the corneal surface. Corneal flaps (approximately 200 μm thick) were excised from the eyes with aid of Intralase femtosecond laser (Abbot Medical Optics, Santa Ana, Calif.). The average thickness of the corneal flaps was calculated as a difference between the measurements before and after the excision from the eyes with an ultrasonic Pachymeter (DGH Technology, Exton, Pa.). The flaps were placed into a biaxial extensometer (CellScale Biotester 5000, Waterloo, ON), using biorake attachments with 5 tines spanning a width of 3 mm. Each sample was stretched at a constant rate of 4 μm/s in saline at 37° C. until sample failure. The flaps were washed with distilled water 2 times, dried with filter paper, washed with dH2O two times, and then dried in a vacuum until the weight change became less than 10% (Rotary vane vacuum pump RV3 A652-01-903, BOC Edwards, West Sussex, UK). Each flap was digested for 2.5 hours at 65° C. with 2.5 units/ml of papain (from Papaya latex, Sigma) in 1 ml of papain buffer [BBBS (pH 7.0-7.2), 2 mM L-cysteine and 2 mM EDTA]. Papain digests were centrifuged for 5 seconds at 2200×G (Mini centrifuge 05-090-100, Fisher Scientific), diluted 0.5 times with 1XBBBS and fluorescence of the solutions was measured with excitation of λex=360 nm in a QM-40 Spectrofluorometer (Photon Technology Int., London, Ontario, Canada). The fluorescence of the papain buffer was taken into account by measuring fluorescence in the absence of tissue and subtracting this value from the fluorescence of the samples.
Pig eyes were shipped overnight on ice from an abattoir (SiouxPreme, Sioux City, Iowa), rinsed in saline. Eyes were cleaned and epithelium was removed. […] Corneas were pan-corneally irradiated with a top hat beam (3% root mean square) for 4 minutes with 365-nm light source (UV LED NCSU033B[T]; Nichia Co., Tokushima, Japan) at irradiance 30 mW/cm^2, which was measured with a power sensor (model PD-300-UV; Ophir, Inc., Jerusalem, Israel) at the corneal surface. Corneal flaps (approximately 200 μm thick) were excised from the eyes with aid of Intralase femtosecond laser (Abbott Medical Optics, Santa Ana, Calif.). The average thickness of the corneal flaps was calculated as a difference between the measurements before and after the excision from the eyes with an ultrasonic Pachymeter (DGH Technology, Exton, Pa.). The flaps were then placed into a biaxial extensometer (CellScale Biotester 5000, Waterloo, ON), using biorake attachments with 5 tines spanning a width of 3 mm. Each sample was stretched at a constant rate of 4 μm/s in saline at 37° C. until sample failure. The flaps were washed with distilled water, dried in a vacuum until the weight change became less than 10% (Rotary vane vacuum pump RV3 A652-01-903, BOC Edwards, West Sussex, UK). Each flap was digested for 2.5 h at 65° C. with 2.5 units/ml of papain (from Papaya latex, Sigma) in 1 ml of papain buffer [BBBS (pH 7.0-7.2), 2 mM L-cysteine and 2 mM EDTA]. Papain digests were centrifuged for 5 seconds at 2200×G (Mini centrifuge 05-090-100, Fisher Scientific), diluted 0.5 times with 1XBBBS and fluorescence of the solutions was measured with excitation of λex=360 nm in a QM-40 Spectrofluorometer (Photon Technology Int., London, Ontario, Canada).

corneal collagen [2] = experiment: Papain digest fluorescence of corneal flaps (collagen cross-linking); parameters: species or system Pig; settings: for fluorescence (relative to the untreated controls, Fo) recorded at 450 nm: 1% solution in dH2O; for fluorescence of the corneal samples after digestion with papain (excitation 360 nm): 30 mW/cm^2, pulsed 1 s on/1 s off, 8 min, oxygen, vs controls not exposed to UV; for fluorescence of the digested corneas in the area 450 nm: 20 min soak, 30 mW/cm^2, 4 min continuous UVA, vs non-cross-linked control
Protocol: Corneas were pan-corneally irradiated with a top hat beam (3% root mean square) for 8 minutes (7.2 J total dose) in a cylinder filled with oxygen with 365-nm light source (pulsing 1 second on, 1 second off) (UV LED NCSU033B[T]; Nichia Co., Tokushima, Japan) at the chosen irradiance (30 mW/cm^2) which was measured with a power sensor (model PD-300-UV; Ophir, Inc., Jerusalem, Israel) at the corneal surface. Before the start of irradiation, oxygen's exposure was 2 minutes. Corneal flaps (approximately 200 μm thick) were excised from the eyes with aid of Intralase femtosecond laser (Abbot Medical Optics, Santa Ana, Calif.). The average thickness of the corneal flaps was calculated as a difference between the measurements before and after the excision from the eyes with an ultrasonic Pachymeter (DGH Technology, Exton, Pa.). The flaps were washed with distilled water two times, dried with filter paper, washed with dH2O two times, and then dried in a vacuum until the weight change became less than 10% (Rotary vane vacuum pump RV3 A652-01-903, BOC Edwards, West Sussex, UK). Each flap was digested for 2.5 hours at 65° C. with 2.5 units/ml of papain (from Papaya latex, Sigma) in 1 ml of papain buffer [BBBS (pH 7.0-7.2), 2 mM L-cysteine and 2 mM EDTA]. Papain digests were centrifuged for 5 seconds at 2200×G (Mini centrifuge 05-090-100, Fisher Scientific), diluted 0.5 times with BBBS and fluorescence of the solutions was measured with excitation of λex=360 nm in a QM-40 Spectrofluorometer (Photon Technology Int., London, Ontario, Canada). The fluorescence of the papain buffer was taken into account by measuring fluorescence in the absence of tissue and subtracting this value from the fluorescence of the samples.
This method was used because the non-enzymatic cross-link density in collagens was previously quantified with use of papain digest fluorescence. There is a linear relationship between fluorescence and increasing cross-linking activity.
Corneal flaps were soaked in either distilled water or diluted H2O2 (1%) for 20 minutes. Flaps soaked in H2O2 were either rinsed twice with distilled water or removed from H2O2 and placed in 0.1% FeSO4 solution in distilled water for an additional 20 minute soak followed by a 2× rinse with distilled water. Flaps were dried in a vacuum until the weight change became less than 10% (Rotary vane vacuum pump RV3 A652-01-903, BOC Edwards, West Sussex, UK). Each flap was digested for 2.5 hours at 65° C. with 2.5 units/ml of papain (from Papaya latex, Sigma) in 1 ml of papain buffer [BBBS (pH 7.0-7.2), 2 mM L-cysteine and 2 mM EDTA]. Papain digests were centrifuged for 5 seconds at 2200×G (Mini centrifuge 05-090-100, Fisher Scientific), diluted 0.5 times with BBBS and fluorescence of the solutions was measured with excitation of λex=360 nm in a QM-40 Spectrofluorometer (Photon Technology Int., London, Ontario, Canada). The fluorescence of the papain buffer was taken into account by measuring fluorescence in the absence of tissue and subtracting this value from the fluorescence of the samples.
Pig eyes were shipped overnight on ice from an abattoir (SiouxPreme, Sioux City, Iowa), rinsed in saline. Eyes were cleaned and epithelium was removed. […] If specified, eyes were placed in a beaker with a light oxygen stream for 2 minutes in the incubation chamber prior to irradiation. Corneas were pan-corneally irradiated with a top hat beam (3% root mean square) for the chosen time (4 or 8 minutes) with 365-nm light source (UV LED NCSU033B[T]; Nichia Co., Tokushima, Japan) at the chosen irradiance (30 mW/cm^2, pulsed or non-pulsed) which was measured with a power sensor (model PD-300-UV; Ophir, Inc., Jerusalem, Israel) at the corneal surface. Corneal flaps (approximately 200 μm thick) were excised from the eyes with aid of Intralase femtosecond laser (Abbot Medical Optics, Santa Ana, Calif.).

human serum albumin = human serum albumin (Homo sapiens, UniProt P02768); settings: irradiated in the presence of human serum albumin; cited from earlier work
[3] = Solubility of folic acid in phosphate buffer; assay type: physicochemical; settings: pH 7, aqueous buffer, 25° C., pH of the final solution 7.0
From the text: FA is soluble in water with dependence on pH and temperature. […] FA has UV light absorbance at 400 nm and below (the long wave peak at 360 nm as shown in FIG. 16), and fluorescence with maximum around 460 nm (as shown in FIG. 17).

Sequence of human serum albumin (P02768 25-609): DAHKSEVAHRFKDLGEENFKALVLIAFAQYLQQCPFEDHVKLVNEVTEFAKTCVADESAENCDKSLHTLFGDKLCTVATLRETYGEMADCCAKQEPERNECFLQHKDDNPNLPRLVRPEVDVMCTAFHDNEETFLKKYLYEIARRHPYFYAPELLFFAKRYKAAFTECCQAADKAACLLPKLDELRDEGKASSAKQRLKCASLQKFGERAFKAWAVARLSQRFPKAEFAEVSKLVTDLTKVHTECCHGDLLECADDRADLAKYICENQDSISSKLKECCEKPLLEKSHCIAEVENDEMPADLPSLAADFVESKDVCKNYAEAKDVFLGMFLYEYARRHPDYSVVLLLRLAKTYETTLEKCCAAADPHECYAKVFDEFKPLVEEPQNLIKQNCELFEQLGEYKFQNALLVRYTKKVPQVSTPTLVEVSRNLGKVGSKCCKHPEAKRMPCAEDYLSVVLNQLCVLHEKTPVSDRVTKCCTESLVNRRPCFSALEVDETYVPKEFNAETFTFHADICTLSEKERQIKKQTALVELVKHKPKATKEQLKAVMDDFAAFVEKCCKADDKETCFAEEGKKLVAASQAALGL

Compound: CC(=O)C(C)=O [2,3-butanedione]
- displacement-force (corneal stiffness) (corneal collagen [1]; UV 365 nm, 30 mW, 4 min): increase of the corneal stiffness
- displacement-force (corneal stiffness) (corneal collagen [1]; without UV light): does not cross-link corneal flaps
- fluorescence (relative to the untreated controls, Fo) recorded at 450 nm (corneal collagen [2]; UV 365 nm, 30 mW, 4 min): increase of the corneal stiffness and fluorescence output
- fluorescence (relative to the untreated controls, Fo) recorded at 450 nm (corneal collagen [2]; without UV light): does not cross-link corneal flaps

Compound: Cc1c(C(=O)NCCO)[n+]([O-])c2ccccc2[n+]1[O-] [Olaquindox, N-(2-hydroxyethyl)-3-methyl-2-quinoxalinecarboxamide 1,4-dioxide]
- biaxial extensiometry (corneal collagen stiffness) (corneal collagen [1]; 0.4% in PBS, UVA 30 mW/cm2, 4 min CW or 8 min pulsed + O2, vs controls): became stiffer
- time to complete disappearance on irradiation (human serum albumin): ≤ 20 s
- relative fluorescence recorded at 450 nm (corneal collagen [2]; 0.4% in PBS, UVA 30 mW/cm2, 4 min CW or 8 min pulsed + O2, vs non-irradiated control): acquired fluorescence at 450 nm

Compound: Nc1nc2ncc(CNc3ccc(C(=O)N[C@@H](CCC(=O)O)C(=O)O)cc3)nc2c(=O)[nH]1 [FA, Folic acid]
- displacement vs. force (corneal stiffening) (corneal collagen [1]; UV 365 nm): significant stiffening
- fluorescence of the corneal samples after digestion with papain (excitation 360 nm) (corneal collagen [2]; UV 365 nm): fluorescence of the cross-linked collagen samples increases
- solubility [3]: 5500 µg/mL (≈ 12.5 mM)

Compound: Cc1cc2nc3c(=O)[nH]c(=O)nc-3n(C[C@H](O)[C@H](O)[C@H](O)CO)c2cc1C [riboflavin]
- displacement vs. force (corneal stiffening) (corneal collagen [1]; UV 365 nm): significant stiffening
- average force vs. displacement of corneal flap (tensiometry) (corneal collagen [1]; vs control group, UVA 30 mW/cm^2, 4 min, CW): higher than the control group
- fluorescence of the digested corneas in the area 450 nm (corneal collagen [2]; 0.1% in BBBS): elevated fluorescence in the area 450 nm
- fluorescence of the corneal samples after digestion with papain (excitation 360 nm) (corneal collagen [2]; UV 365 nm): fluorescence of the cross-linked collagen samples increases

Compound: Cc1cc2nc(C(=O)[O-])c(=O)n(C[C@H](O)[C@H](O)[C@H](O)CO)c2cc1C.O.[Na+] [sodium salt of 1,2-Dihydro-6,7-dimethyl-2-keto-1-D-ribityl-3-quinoxalinecarboxylic acid monohydrate]
- fluorescence of the digested corneas in the area 450 nm (corneal collagen [2]; 0.1% in BBBS): elevated fluorescence in the area 450 nm
- fluorescence of the digested corneal flaps (excitation 360 nm) (corneal collagen [2]; 0.1% in BBBS, de-oxygenated with argon, irradiated 4 min at 30 mW/cm^2 in CO2 atmosphere): higher than the fluorescence of the corneal flaps cross-linked with riboflavin

Compound: hydrogen peroxide [H2O2]
- fluorescence counts of papain digested corneal flaps (corneal collagen [2]; flaps soaked 20 min in 1% H2O2, with or without a further 20 min in 0.1% Iron(II) (FeSO4), no UV): not when they were exposed to only H2O2

From patent publication US20140343480A1, “SYSTEMS, METHODS, AND COMPOSITIONS FOR CROSS-LINKING” (AVEDRO, INC., priority 2013, published 2014)
